The NIST ThermoML archive (doi:10.1016/j.tca.2015.04.021)
Numbers after ± are expanded uncertainties.

Assay: molar enthalpy of vaporization or sublimation
Settings: Liquid, TGA

Cn1cc[n+](CCC(F)(F)C(F)(F)C(F)(F)C(F)(F)C(F)(F)C(F)(F)F)c1.O=S(=O)([N-]S(=O)(=O)C(F)(F)F)C(F)(F)F
molar enthalpy (532.3 K): 30.1 ± 0.669 kcal/mol

Cn1cc[n+](CCC(F)(F)C(F)(F)F)c1.O=S(=O)([N-]S(=O)(=O)C(F)(F)F)C(F)(F)F
molar enthalpy (527.7 K): 27.2 ± 0.621 kcal/mol

Cn1cc[n+](CCC(F)(F)C(F)(F)C(F)(F)C(F)(F)C(F)(F)C(F)(F)C(F)(F)C(F)(F)F)c1.O=S(=O)([N-]S(=O)(=O)C(F)(F)F)C(F)(F)F
molar enthalpy (531.8 K): 30.5 ± 0.669 kcal/mol
